Laboratory results taken from US20240368158A1, “KINASE MODULATORS, COMPOSITIONS COMPRISING THE KINASE MODULATOR, AND METHODS OF USING THE SAME” (BIOFRONT LTD, priority 2021, published 2024).

Legend:
[1] = tested on: HPK1 p-SLP-76 in Jurkat cells; test: HPK1 p-SLP-76 inhibition assay in Jurkat cells (HTRF); assay type: cell-based; conditions: Homo sapiens, 4 h compound, anti-CD3 stimulation 20 min
Experimental: Before compound treatment, Jurkat cells were starved in PRMI-1640 medium supplemented with 0.5% FBS overnight. The cell density was adjusted to 1*10^7 cells/mL in assay medium (RPMI-1640 no phenol red with 0.5% FBS) and 16 uL cell suspension was transferred per well to a 384-well plate (Corning #3765). […] of test compound was prepared in assay medium and 4 uL was added per well to the 384-well plate. The plate was then incubated at 37° C., 5% CO2 for 4 h. Jurkat cells in 384-well plate were stimulated with anti-CD3 (BD Biosciences #555329, final conc. is 10 ug/mL) for 20 min at 37° C., 5% CO2 by adding 4 uL 6× antibody solution per well. Phospho-SLP76 HTRF kit was purchased from Cisbio (63ADK076PEH). 8 uL 4× Lysis Buffer was added to 384-well plate after anti-CD3 stimulation. The plate was centrifuged at 1,000 rpm for 1 min, shaken at 250 rpm for 60 min and centrifuged again at 1,000 rpm for 5 min. Afterwards the cell lysates were transferred to the assay plate (Greiner #784075) with 16 uL per well. 4 uL detection antibody mix per well prepared in Detection Buffer was added to the assay plate, followed by centrifugation at 1,000 rpm for 1 min and incubation at 25° C. overnight. The fluorescence emission at two different wavelengths (665 nm and 620 nm) was read by an HTRF compatible microplate reader and the IC50 value of the compound was calculated.

HPK1 = molecular target: T1, HPK1 (Homo sapiens, UniProt Q92918); test: HPK1 enzyme inhibition assay (ADP-Glo); assay type: biochemical; conditions: MBP substrate, ATP
T1 construct: purchased Signal Chem M23-11G-10
T1 sequence (Q92918 1-346 limits assumed): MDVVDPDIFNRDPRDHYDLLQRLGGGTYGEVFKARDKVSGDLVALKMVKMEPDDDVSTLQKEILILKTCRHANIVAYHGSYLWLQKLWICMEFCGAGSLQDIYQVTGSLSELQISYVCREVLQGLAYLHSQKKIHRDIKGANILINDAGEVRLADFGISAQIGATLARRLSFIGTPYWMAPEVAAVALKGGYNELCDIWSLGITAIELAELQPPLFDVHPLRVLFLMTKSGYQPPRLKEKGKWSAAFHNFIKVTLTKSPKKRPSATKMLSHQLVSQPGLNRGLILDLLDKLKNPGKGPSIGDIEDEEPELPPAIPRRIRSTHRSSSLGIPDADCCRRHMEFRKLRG
Experimental: The compound was dissolved in 100% DMSO at the concentration of 10 mM. The HPK1 protein was purchased from Signal Chem (M23-11G-10). 2.5 μL per well of 2×HPK1 protein was added to assay plate containing the test compound, centrifuged at 1500 rpm for 1 minute, and then incubated at 25° C. for 60 minutes. MBP protein was purchased from Signal Chem (M42-51N) and ATP was purchased from Promega (V9102). The two were added 2.5 μL per well mixture of 2×MBP (0.2 ug/ul) and ATP (20 μM), centrifuged at 1500 rpm for 1 minute, then incubated at 25° C. for 60 minutes. Then added 5 μL of ADP-Glo from Promega (V9102) to the assay plate and depleted the unconsumed ATP for 60 minutes. Then centrifuged at 1500 rpm for 1 minute and incubated at 25° C. for 60 minutes. Finally, 10 μL of the kinase assay reagent from Promega (V9102) was added to the assay plate to convert ADP to ATP, centrifuged at 1500 rpm for 1 minute, incubate at 25° C. for 40 minutes. After 40 minutes incubation, the […] was determined. Based on the results, the IC50 value of the compound was calculated.

SMILES | IC50 [1] [µM] | IC50 (HPK1) [µM]
O=C1CNCCN1c1cccc(-c2cnc3[nH]cc(C4CC4)c3c2Cl)n1 [Example 15, 1-(6-(4-chloro-3-cyclopropyl-1H-pyrrolo[2,3-b]pyridin-5-yl)pyridin-2-yl)piperazin-2-one] | ≤ 0.3 | ≤ 0.01
COCC(=O)N1CCN(c2cccc(-c3cnc4[nH]cc(CC(F)F)c4c3Cl)c2)C(=O)C1 [Example 38, 1-(3-(4-chloro-3-(2,2-difluoroethyl)-1H-pyrrolo[2,3-b]pyridin-5-yl)phenyl)-4-(2-methoxyacetyl)piperazin-2-one] | 0.3 to 3 | ≤ 0.01
CCc1c[nH]c2ncc(-c3cccc(N4CCC[C@@H](CO)C4=O)c3)c(Cl)c12 [Example 24, (S)-1-(3-(4-chloro-3-ethyl-1H-pyrrolo[2,3-b]pyridin-5-yl)phenyl)-3-(hydroxymethyl)piperidin-2-one] | 0.3 to 3 | ≤ 0.01
CS(=O)(=O)N1CCN(c2cccc(-c3cnc4[nH]cc(CC(F)F)c4c3Cl)c2)C(=O)C1 [Example 51, 1-(3-(4-chloro-3-(2,2-difluoroethyl)-1H-pyrrolo[2,3-b]pyridin-5-yl)phenyl)-4-(methylsulfonyl)piperazin-2-one] | 0.3 to 3 | ≤ 0.01
CCc1c[nH]c2ncc(-c3cc(N4CCNCC4=O)ccc3F)c(Cl)c12 [Example 17, 1-(3-(4-chloro-3-ethyl-1H-pyrrolo[2,3-b]pyridin-5-yl)-4-fluorophenyl)piperazin-2-one] | 0.3 to 3 | 0.01 to 0.1
CN(C)CC#Cc1c[nH]c2ncc(-c3cccc(N4CCNCC4=O)c3)c(Cl)c12 [Example 8, 1-(3-(4-chloro-3-(3-(dimethylamino)prop-1-yn-1-yl)-1H-pyrrolo[2,3-b]pyridin-5-yl)phenyl)piperazin-2-one] | > 10 | > 1
CCc1c[nH]c2ncc(-c3cccc(N4CCC[C@H](CO)C4=O)c3)c(Cl)c12 [Example 23, (R)-1-(3-(4-chloro-3-ethyl-1H-pyrrolo[2,3-b]pyridin-5-yl)phenyl)-3-(hydroxymethyl)piperidin-2-one] | 0.3 to 3 | ≤ 0.01
O=C1CNCCN1c1cc(-c2cnc3[nH]cc(C4CC4)c3c2Cl)ccn1 [Example 18, 1-(4-(4-chloro-3-cyclopropyl-1H-pyrrolo[2,3-b]pyridin-5-yl)pyridin-2-yl)piperazin-2-one] | 3 to 10 | 0.01 to 0.1
O=C1CN(S(=O)(=O)CCCN2CCOCC2)CCN1c1cccc(-c2cnc3[nH]cc(C4CC4)c3c2Cl)c1 [Example 55, 1-(3-(4-chloro-3-cyclopropyl-1H-pyrrolo[2,3-b]pyridin-5-yl)phenyl)-4-((3-morpholinopropyl)sulfonyl)piperazin-2-one] | 0.3 to 3 | ≤ 0.01
O=C1CNCCN1c1cccc(-c2cnc3[nH]cc(C#CC4CC4)c3c2Cl)c1 [Example 5, 1-(3-(4-chloro-3-(cyclopropylethynyl)-1H-pyrrolo[2,3-b]pyridin-5-yl)phenyl) piperazin-2-one] | > 10 | ≤ 0.01
CCc1c[nH]c2ncc(-c3cccc(N4CCN(C(=O)CNc5ccc(C[C@@H](N)C(=O)O)cc5)CC4=O)c3)c(Cl)c12 [Example 46, (R)-2-amino-3-(4-((2-(4-(3-(4-chloro-3-ethyl-1H-pyrrolo[2,3-b]pyridin-5-yl)phenyl)-3-oxopiperazin-1-yl)-2-oxoethyl)amino)phenyl)propanoic acid] | 3 to 10 | ≤ 0.01
CC(C)(C)C#Cc1c[nH]c2ncc(-c3cccc(N4CCNCC4=O)c3)c(Cl)c12 [Example 3, 1-(3-(4-chloro-3-(3,3-dimethylbut-1-yn-1-yl)-1H-pyrrolo[2,3-b]pyridin-5-yl)phenyl) piperazin-2-one] | 0.3 to 3 | 0.1 to 1
COCC(=O)N1CCN(c2cccc(-c3cnc4[nH]cc(C#Cc5ccccn5)c4c3Cl)c2)C(=O)C1 [Example 35, 1-(3-(4-chloro-3-(pyridin-2-ylethynyl)-1H-pyrrolo[2,3-b]pyridin-5-yl)phenyl)-4-(2-methoxyacetyl)piperazin-2-one] | 3 to 10 | 0.01 to 0.1
CCc1c[nH]c2ncc(-c3cccc(N4CCN(C(=O)CN(C)C)CC4=O)c3)c(Cl)c12 [Example 31, 1-(3-(4-chloro-3-ethyl-1H-pyrrolo[2,3-b]pyridin-5-yl)phenyl)-4-(dimethylglycyl)piperazin-2-one] | 0.3 to 3 | ≤ 0.01
CN(C)CCCS(=O)(=O)N1CCN(c2cccc(-c3cnc4[nH]cc(C5CC5)c4c3Cl)c2)C(=O)C1 [Example 56, 1-(3-(4-chloro-3-cyclopropyl-1H-pyrrolo[2,3-b]pyridin-5-yl)phenyl)-4-((3-(dimethylamino)propyl)sulfonyl)piperazin-2-one] | 0.3 to 3 | ≤ 0.01
O=C1CNCCN1c1cccc(-c2cnc3[nH]cc(C#Cc4cccnc4)c3c2Cl)c1 [Example 6, 1-(3-(4-chloro-3-(pyridin-3-ylethynyl)-1H-pyrrolo[2,3-b]pyridin-5-yl)phenyl)piperazin-2-one] | 0.3 to 3 | 0.01 to 0.1
CCc1c[nH]c2ncc(-c3cc(N4CCNCC4=O)ccc3CN(C)C)cc12 [Example 40, 1-(4-((dimethylamino)methyl)-3-(3-ethyl-1H-pyrrolo[2,3-b]pyridin-5-yl)phenyl)piperazin-2-one] | > 10 | > 1
O=C1CN(S(=O)(=O)CCCN2CC(F)C2)CCN1c1cccc(-c2cnc3[nH]cc(C4CC4)c3c2Cl)c1 [Example 58, 1-(3-(4-chloro-3-cyclopropyl-1H-pyrrolo[2,3-b]pyridin-5-yl)phenyl)-4-((3-(3-fluoroazetidin-1-yl)propyl)sulfonyl)piperazin-2-one] | 0.3 to 3 | ≤ 0.01
CCc1c[nH]c2ncc(-c3csc(N4CCNCC4=O)n3)c(Cl)c12 [Example 10, 1-(4-(4-chloro-3-ethyl-1H-pyrrolo[2,3-b]pyridin-5-yl)thiazol-2-yl)piperazin-2-one] | 0.3 to 3 | 0.01 to 0.1
CCc1c[nH]c2ncc(-c3cccc(N4CCNCC4=O)c3)c(Cl)c12 [Example 1, 1-(3-(4-chloro-3-ethyl-1H-pyrrolo[2,3-b]pyridin-5-yl)phenyl)piperazin-2-one] | 0.3 to 3 | ≤ 0.01
COCC(=O)N1CCN(c2cccc(-c3cnc4[nH]cc(C#Cc5cccnc5)c4c3Cl)c2)C(=O)C1 [Example 29, 1-(3-(4-chloro-3-(pyridin-3-ylethynyl)-1H-pyrrolo[2,3-b]pyridin-5-yl)phenyl)-4-(2-methoxyacetyl)piperazin-2-one] | 0.3 to 3 | ≤ 0.01
COCC(=O)N1CCN(c2cccc(-c3cnc4[nH]cc(C5CC5)c4c3Cl)c2)C(=O)C1 [Example 32, 1-(3-(4-chloro-3-cyclopropyl-1H-pyrrolo[2,3-b]pyridin-5-yl)phenyl)-4-(2-methoxyacetyl) piperazin-2-one] | ≤ 0.3 | ≤ 0.01
CCc1c[nH]c2ncc(-c3cccc(N4CCN(S(C)(=O)=O)CC4=O)c3)c(Cl)c12 [Example 52, 1-(3-(4-chloro-3-ethyl-1H-pyrrolo[2,3-b]pyridin-5-yl)phenyl)-4-(methylsulfonyl) piperazin-2-one] | 0.3 to 3 | ≤ 0.01
O=C1CNCCN1c1cccc(-c2cnc3[nH]cc(CC(F)F)c3c2Cl)c1 [Example 12, 1-(3-(4-chloro-3-(2,2-difluoroethyl)-1H-pyrrolo[2,3-b]pyridin-5-yl)phenyl)piperazin-2-one] | 0.3 to 3 | ≤ 0.01
CCc1c[nH]c2ncc(-c3cccc(N4CCN(C(=O)[C@@H](N)C(C)C)CC4=O)c3)c(Cl)c12 [Example 42, 4-(L-valyl)-1-(3-(4-chloro-3-ethyl-1H-pyrrolo[2,3-b]pyridin-5-yl)phenyl)piperazin-2-one] | 3 to 10 | 0.01 to 0.1
